Test: Calcium binding affinity (fluorescent calcium probe) expressed in terms of dissociation constant

| SMILES | Kd |
| --- | --- |
| O=C(O)CN(CC(=O)O)c1ccc(F)cc1OCCOc1cc(-c2cc3ccc(C(=O)O)cc3[nH]2)ccc1N(CC(=O)O)CC(=O)O | 470 nM |
| O=C(O)CN(CC(=O)O)c1ccc(Cl)cc1OCCOc1cc2cc(-c3ncc(C(=O)O)o3)oc2cc1N(CC(=O)O)CC(=O)O | 400 nM |
| Cc1ccc(N(CC(=O)O)CC(=O)O)c(OCCOc2cc3cc(-c4ncc(C(=O)O)o4)oc3cc2N(CC(=O)O)CC(=O)O)c1 | 140 nM |
| O=C(O)CN(CC(=O)O)c1ccc(F)cc1OCCOc1cc2cc(-c3ncc(C(=O)O)o3)oc2cc1N(CC(=O)O)CC(=O)O | 400 nM |
| O=C(O)CN(CC(=O)O)c1ccc(F)cc1OCCOc1cc(-c2nc3cc(C(F)(F)F)ccc3s2)ccc1N(CC(=O)O)CC(=O)O | 1400 nM |
| O=C(O)CN(CC(=O)O)c1cc2oc(-c3ncc(C(=O)O)o3)cc2cc1OCCOc1c(F)cccc1N(CC(=O)O)CC(=O)O | 5300 nM |
| Cc1ccc(N(CC(=O)O)CC(=O)O)c(OCCOc2cc(-c3nc4cc(C(F)(F)F)ccc4s3)ccc2N(CC(=O)O)CC(=O)O)c1 | 660 nM |
| Cc1ccc(N(CC(=O)O)CC(=O)O)c(OCCOc2cc(-c3cc4ccc(C(=O)O)cc4[nH]3)ccc2N(CC(=O)O)CC(=O)O)c1 | 230 nM |
| O=C(O)CN(CC(=O)O)c1cc(F)ccc1OCCOc1cc2cc(-c3ncc(C(=O)O)o3)oc2cc1N(CC(=O)O)CC(=O)O | 770 nM |

Reference: ChEMBL document CHEMBL1133224, “New ratiometric fluorescent calcium indicators with moderately attenuated binding affinities” (Bioorg Med Chem Lett, 2000)
